# Results: PubChem BioAssay AID1918952 (Molecular Pharmacology Branch, DTP, NCI, 2023)
# System: LG0703-F948-PDC complex spheroid viability
# Assay: Anticancer human tumor LG0703-F948-PDC patient-derived lung adenocarcinoma cell line growth inhibition
# Settings: for IC50: curve of first compound; for viability, T/C: stronger effect = lower value
# Summary of the method: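 Drug combinations with the LSD1 inhibitor iadademstat tested on tumor cells co-cultured as spheroids with endothelial cells and mesenchymal stem cells. Concentrations descended in half-log increments from clinical Cmax or 10 microM.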
# [1] = second compound 0.1 µM, first compound 0.00316 µM
# [2] = second compound 0.1 µM, first compound 0.01 µM
# [3] = second compound 0.1 µM, first compound 0.0316 µM
# [4] = second compound 0.1 µM, first compound 0.1 µM
# [5] = second compound 0.316 µM, first compound 0.00316 µM
# [6] = second compound 0.316 µM, first compound 0.01 µM
# [7] = second compound 0.316 µM, first compound 0.0316 µM
# [8] = second compound 0.316 µM, first compound 0.1 µM
# [9] = second compound 1 µM, first compound 0.00316 µM
# [10] = second compound 1 µM, first compound 0.01 µM
# [11] = second compound 1 µM, first compound 0.0316 µM
# [12] = second compound 1 µM, first compound 0.1 µM
# [13] = second compound 3.16 µM, first compound 0.00316 µM
# [14] = second compound 3.16 µM, first compound 0.01 µM
# [15] = second compound 3.16 µM, first compound 0.0316 µM
# [16] = second compound 3.16 µM, first compound 0.1 µM
# [17] = second compound 10 µM, first compound 0.00316 µM
# [18] = second compound 10 µM, first compound 0.01 µM
# [19] = second compound 10 µM, first compound 0.0316 µM
# [20] = second compound 10 µM, first compound 0.1 µM
# [21] = second compound 0.1 µM, first compound 0.000949 µM
# [22] = second compound 0.1 µM, first compound 0.003 µM
# [23] = second compound 0.1 µM, first compound 0.00949 µM
# [24] = second compound 0.1 µM, first compound 0.03 µM
# [25] = second compound 0.1 µM, first compound 0.0949 µM
# [26] = second compound 0.1 µM, first compound 0.3 µM
# [27] = second compound 0.316 µM, first compound 0.000949 µM
# [28] = second compound 0.316 µM, first compound 0.003 µM
# [29] = second compound 0.316 µM, first compound 0.00949 µM
# [30] = second compound 0.316 µM, first compound 0.03 µM
# [31] = second compound 0.316 µM, first compound 0.0949 µM
# [32] = second compound 0.316 µM, first compound 0.3 µM
# [33] = second compound 1 µM, first compound 0.000949 µM
# [34] = second compound 1 µM, first compound 0.003 µM
# [35] = second compound 1 µM, first compound 0.00949 µM
# [36] = second compound 1 µM, first compound 0.03 µM
# [37] = second compound 1 µM, first compound 0.0949 µM
# [38] = second compound 1 µM, first compound 0.3 µM
# [39] = second compound 3.16 µM, first compound 0.000949 µM
# [40] = second compound 3.16 µM, first compound 0.003 µM
# [41] = second compound 3.16 µM, first compound 0.00949 µM
# [42] = second compound 3.16 µM, first compound 0.03 µM
# [43] = second compound 3.16 µM, first compound 0.0949 µM
# [44] = second compound 3.16 µM, first compound 0.3 µM
# [45] = second compound 10 µM, first compound 0.000949 µM
# [46] = second compound 10 µM, first compound 0.003 µM
# [47] = second compound 10 µM, first compound 0.00949 µM
# [48] = second compound 10 µM, first compound 0.03 µM
# [49] = second compound 10 µM, first compound 0.0949 µM
# [50] = second compound 10 µM, first compound 0.3 µM
# 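Also: spheroids exposed to agents for seven days before readout.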
# 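For viability, T/C in this document: 100% = DMSO vehicle control wells as normalization base.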
structure (smiles),measurement,setting,value
CC[C@@]1(O)C(=O)OCc2c1cc1n(c2=O)Cc2cc3c(CN(C)C)c(O)ccc3nc2-1 + NC1CCC(NC2CC2c2ccccc2)CC1,IC50,second compound 0.1 µM,> 100 nM
same,IC50,second compound 0.316 µM,> 100 nM
same,IC50,second compound 1 µM,> 100 nM
same,IC50,second compound 3.16 µM,> 100 nM
same,IC50,second compound 10 µM,> 100 nM
same,"viability, T/C","second compound 0.1 µM, first compound 0.000316 µM",103%
same,"viability, T/C","second compound 0.1 µM, first compound 0.001 µM",129%
same,"viability, T/C",[1],110%
same,"viability, T/C",[2],87.4%
same,"viability, T/C",[3],64.8%
same,"viability, T/C",[4],52.8%
same,"viability, T/C","second compound 0.316 µM, first compound 0.000316 µM",117%
same,"viability, T/C","second compound 0.316 µM, first compound 0.001 µM",111%
same,"viability, T/C",[5],104%
same,"viability, T/C",[6],95.8%
same,"viability, T/C",[7],78.2%
same,"viability, T/C",[8],63%
same,"viability, T/C","second compound 1 µM, first compound 0.000316 µM",128%
same,"viability, T/C","second compound 1 µM, first compound 0.001 µM",132%
same,"viability, T/C",[9],122%
same,"viability, T/C",[10],101%
same,"viability, T/C",[11],77.7%
same,"viability, T/C",[12],61.9%
same,"viability, T/C","second compound 3.16 µM, first compound 0.000316 µM",110%
same,"viability, T/C","second compound 3.16 µM, first compound 0.001 µM",134%
same,"viability, T/C",[13],117%
same,"viability, T/C",[14],101%
same,"viability, T/C",[15],98.4%
same,"viability, T/C",[16],69.6%
same,"viability, T/C","second compound 10 µM, first compound 0.000316 µM",130%
same,"viability, T/C","second compound 10 µM, first compound 0.001 µM",123%
same,"viability, T/C",[17],115%
same,"viability, T/C",[18],96.6%
same,"viability, T/C",[19],96.8%
same,"viability, T/C",[20],84.5%
CCc1c2c(nc3ccc(O)cc13)-c1cc3c(c(=O)n1C2)COC(=O)[C@]3(O)CC + NC1CCC(NC2CC2c2ccccc2)CC1,IC50,second compound 0.1 µM,1.31 nM
same,IC50,second compound 0.316 µM,1.87 nM
same,IC50,second compound 1 µM,1.89 nM
same,IC50,second compound 3.16 µM,3.61 nM
same,IC50,second compound 10 µM,5.11 nM
same,"viability, T/C",[21],55.8%
same,"viability, T/C",[22],36.4%
same,"viability, T/C",[23],23.9%
same,"viability, T/C",[24],15%
same,"viability, T/C",[25],8.81%
same,"viability, T/C",[26],4.02%
same,"viability, T/C",[27],63.7%
same,"viability, T/C",[28],40.2%
same,"viability, T/C",[29],24.8%
same,"viability, T/C",[30],15.1%
same,"viability, T/C",[31],7.91%
same,"viability, T/C",[32],3.79%
same,"viability, T/C",[33],62.8%
same,"viability, T/C",[34],40.8%
same,"viability, T/C",[35],27.6%
same,"viability, T/C",[36],15.9%
same,"viability, T/C",[37],7.93%
same,"viability, T/C",[38],3.95%
same,"viability, T/C",[39],64.8%
same,"viability, T/C",[40],52.5%
same,"viability, T/C",[41],35.3%
same,"viability, T/C",[42],18.1%
same,"viability, T/C",[43],7.91%
same,"viability, T/C",[44],4.52%
same,"viability, T/C",[45],78.8%
same,"viability, T/C",[46],59%
same,"viability, T/C",[47],39.6%
same,"viability, T/C",[48],19.9%
same,"viability, T/C",[49],8.18%
same,"viability, T/C",[50],3.7%
COc1cc(C2c3cc4c(cc3C(OC3OC5COC(C)OC5C(O)C3O)C3COC(=O)C23)OCO4)cc(OC)c1O (stereo not given) + NC1CCC(NC2CC2c2ccccc2)CC1,IC50,second compound 0.1 µM,> 3000 nM
same,IC50,second compound 0.316 µM,> 3000 nM
same,IC50,second compound 1 µM,> 3000 nM
same,IC50,second compound 3.16 µM,> 3000 nM
same,IC50,second compound 10 µM,> 3000 nM
same,"viability, T/C",[23],99.9%
same,"viability, T/C",[24],104%
same,"viability, T/C",[25],94.8%
same,"viability, T/C",[26],87.6%
same,"viability, T/C","second compound 0.1 µM, first compound 0.949 µM",72.2%
same,"viability, T/C","second compound 0.1 µM, first compound 3 µM",58.2%
same,"viability, T/C",[29],106%
same,"viability, T/C",[30],108%
same,"viability, T/C",[31],90.7%
same,"viability, T/C",[32],87.6%
same,"viability, T/C","second compound 0.316 µM, first compound 0.949 µM",77.8%
same,"viability, T/C","second compound 0.316 µM, first compound 3 µM",65%
same,"viability, T/C",[35],113%
same,"viability, T/C",[36],127%
same,"viability, T/C",[37],108%
same,"viability, T/C",[38],99.3%
same,"viability, T/C","second compound 1 µM, first compound 0.949 µM",91.4%
same,"viability, T/C","second compound 1 µM, first compound 3 µM",73.7%
same,"viability, T/C",[41],120%
same,"viability, T/C",[42],105%
same,"viability, T/C",[43],112%
same,"viability, T/C",[44],108%
same,"viability, T/C","second compound 3.16 µM, first compound 0.949 µM",98.5%
same,"viability, T/C","second compound 3.16 µM, first compound 3 µM",86.8%
same,"viability, T/C",[47],104%
same,"viability, T/C",[48],115%
same,"viability, T/C",[49],118%
same,"viability, T/C",[50],86.2%
same,"viability, T/C","second compound 10 µM, first compound 0.949 µM",97.5%
same,"viability, T/C","second compound 10 µM, first compound 3 µM",81.4%
Nc1ccn(C2OC(CO)C(O)C2(F)F)c(=O)n1 (stereo not given) + NC1CCC(NC2CC2c2ccccc2)CC1,IC50,second compound 0.1 µM,3.35 nM
same,IC50,second compound 0.316 µM,4.37 nM
same,IC50,second compound 1 µM,15.2 nM
same,IC50,second compound 3.16 µM,24.4 nM
same,IC50,second compound 10 µM,19.3 nM
same,"viability, T/C",[21],68.9%
same,"viability, T/C",[22],50.5%
same,"viability, T/C",[23],41.8%
same,"viability, T/C",[24],44%
same,"viability, T/C",[25],39.1%
same,"viability, T/C",[26],36.8%
same,"viability, T/C",[27],67.5%
same,"viability, T/C",[28],52.3%
same,"viability, T/C",[29],45.3%
same,"viability, T/C",[30],41.1%
same,"viability, T/C",[31],44.2%
same,"viability, T/C",[32],38.6%
same,"viability, T/C",[33],74.6%
same,"viability, T/C",[34],56.1%
same,"viability, T/C",[35],55%
same,"viability, T/C",[36],46.4%
same,"viability, T/C",[37],48.1%
same,"viability, T/C",[38],37.2%
same,"viability, T/C",[39],86.8%
same,"viability, T/C",[40],65.8%
same,"viability, T/C",[41],54.1%
same,"viability, T/C",[42],51.5%
same,"viability, T/C",[43],45.1%
same,"viability, T/C",[44],43.6%
same,"viability, T/C",[45],83.1%
same,"viability, T/C",[46],56.8%
same,"viability, T/C",[47],56.8%
same,"viability, T/C",[48],49%
same,"viability, T/C",[49],51.1%
same,"viability, T/C",[50],42.2%
Nc1ncn(C2CC(O)C(CO)O2)c(=O)n1 (stereo not given) + NC1CCC(NC2CC2c2ccccc2)CC1,IC50,second compound 0.1 µM,> 1000 nM
same,IC50,second compound 0.316 µM,> 1000 nM
same,IC50,second compound 1 µM,> 1000 nM
same,IC50,second compound 3.16 µM,> 1000 nM
same,IC50,second compound 10 µM,> 1000 nM
same,"viability, T/C",[1],101%
same,"viability, T/C",[2],102%
same,"viability, T/C",[3],98%
same,"viability, T/C",[4],96.3%
same,"viability, T/C","second compound 0.1 µM, first compound 0.316 µM",95.4%
same,"viability, T/C","second compound 0.1 µM, first compound 1 µM",81.9%
same,"viability, T/C",[5],114%
same,"viability, T/C",[6],118%
same,"viability, T/C",[7],110%
same,"viability, T/C",[8],98.7%
same,"viability, T/C","second compound 0.316 µM, first compound 0.316 µM",102%
same,"viability, T/C","second compound 0.316 µM, first compound 1 µM",98.5%
same,"viability, T/C",[9],107%
same,"viability, T/C",[10],126%
same,"viability, T/C",[11],130%
same,"viability, T/C",[12],106%
same,"viability, T/C","second compound 1 µM, first compound 0.316 µM",97%
same,"viability, T/C","second compound 1 µM, first compound 1 µM",112%
same,"viability, T/C",[13],122%
same,"viability, T/C",[14],121%
same,"viability, T/C",[15],117%
same,"viability, T/C",[16],111%
same,"viability, T/C","second compound 3.16 µM, first compound 0.316 µM",131%
same,"viability, T/C","second compound 3.16 µM, first compound 1 µM",101%
same,"viability, T/C",[17],122%
same,"viability, T/C",[18],141%
same,"viability, T/C",[19],111%
same,"viability, T/C",[20],114%
same,"viability, T/C","second compound 10 µM, first compound 0.316 µM",113%
same,"viability, T/C","second compound 10 µM, first compound 1 µM",122%
